# Results: US20030194719A1, “Tpst-assay for diagnosis of autism and related disorders” (priority 2000, published 2003)
# Tests used:
# [1] = tested on: Tyrosyl protein sulphotransferase (TPST); assay: TPST activity assay in platelets from normal healthy blood donors (35S transfer from PAPS35 to EAY substrate); assay type: biochemical, human; conditions: for TPST activity (0 μM = 100.0): Table 5; for TPST activity (0 μM = 100): Table 7
# Method: The activity of sulphotransferases can be measured by monitoring the transfer of ^35S from the sulphate donor, PAPS^35, to the product, in this case the synthetic tyrosine substrate EAY. This assay uses platelets from control subjects (n=5) and those patients suffering from a particular disorder, selected from autism (n=14), irritable bowel syndrome (n=3) schizophrenia (gluten-sensitive)(n=4), food allergy (gluten, milk) (n=3) and depression (n=2).
# Reaction mixtures were incubated for 50 minutes at 37° C. and reactions were stopped by barium acetate. Unreacted sulphate, proteins and nucleotides were precipitated by zinc sulphate and barium hydroxide. Within the reaction there is a positive and negative control. The positive control is termed 100%, and represents the total amount of radioactivity present in the hot PAPS^35 sample. The negative control is the “no-enzyme” reaction, this represents the amount of sulphate transferred to the product when no enzyme is present, i.e. the chemical reaction. The blank for the reaction is made up without PAPS^35 and without enzyme.
# 10 ml of whole blood was taken from patients and the blood cells removed. The remaining plasma was centrifuged at 8000 g for 5 mins to sediment the platelets. This platelet pellet was resuspended in 5 ml 10 mM phosphate buffered saline (PBS) containing 10 mM EDTA, recentrifuged at 2000 g at 4° C. for 30 min. […] The platelets were sonicated for 12×10 second bursts at 4° C. The platelet sonicates were stored in 1 ml portions at −70° C. prior to use.
# Substrate: 10 μl EAY (300 μM; poly (Glu, Ala, Tyr) 6:3:1) was used in each test assay, to give a final concentration in the reaction of 20 μM. This solution was made up in MES reaction buffer.
# Reaction mixtures were made up as in the table above. To begin the assay, platelet homogenate (20 μl) and PAPS^35 (20 μl) were added at 30-second intervals to a final volume of 150 μl. The reaction mixture was then incubated at 37° C. for 40 min. The reaction is stopped by the addition of 200 μl-barium acetate (0.1 M) and the tubes were vortexed and placed on ice for […].
# Unreacted sulphate was then precipitated by the addition of 0.1 M zinc sulphate (200 μl) and 0.1 M barium hydroxide (200 μl). The tubes were vortexed and centrifuged at 6500 rpm for 3 min.
# Repeat step 3. Supernatant (500 μl) was then added to scintillation fluid (3.5 ml) and S^35 was counted in a Phillips scintillation counter.
# Various compounds were investigated, including fatty acids, flavonoids and amino acids. […] Compounds were tested at the concentrations shown and were dissolved in buffer where possible or ethanol if not.
# In the Example shown in Table 6 and FIG. 6 compounds were all dissolved in DMSO and tested at 25 μM.
# [2] = tested on: TPST; conditions: PC12 cells; cited from earlier work
# [3] = tested on: TPST; conditions: stomach and liver of ethanol-fed male Sprague-Dawley rats; cited from earlier work
# [4] = tested on: TPST; conditions: human alcoholics; cited from earlier work
# [5] = Table 6, 25 μM, dissolved in DMSO, human platelets
# [6] = Example 2, concentrations as in Table 2, normal human platelets
# [7] = Table 2, 100 μM, normal human platelets
structure (smiles),measurement,setting,value
"O=c1cc(-c2cc(O)cc(O)c2)oc2cc(O)ccc12 [3′,5′,7 OH Flavone]",% Control TPST Activity,[1]; [5],32%
CCCCCCCC/C=C\CCCCCCCC(=O)O [Oleic Acid],Effect on TPST activity (in words),[1]; [6],slight stimulation of TPST activity
same,% Control TPST Activity,[1]; [7],111%
same,TPST activity (0 μM = 100.0),[1]; fatty acid 0.5 μM,74.5
same,TPST activity (0 μM = 100.0),[1]; fatty acid 1 μM,61.5
same,TPST activity (0 μM = 100.0),[1]; fatty acid 2.5 μM,69.2
same,TPST activity (0 μM = 100.0),[1]; fatty acid 5 μM,51.4
same,TPST activity (0 μM = 100.0),[1]; fatty acid 10 μM,60.5
same,TPST activity (0 μM = 100.0),[1]; fatty acid 25 μM,56.2
same,TPST activity (0 μM = 100.0),[1]; fatty acid 50 μM,54.3
same,TPST activity (0 μM = 100.0),[1]; fatty acid 100 μM,29.5
"CCCCC[C@H](O)/C=C/[C@H]1[C@H](O)CC(=O)[C@@H]1C/C=C\CCCC(=O)O [PGE2, prostaglandin E2]",Effect on TPST activity (in words),[1]; [6],stimulation of activity
same,% Control TPST Activity,[1]; [7],124%
[Mn+2] [Manganese],Effect on TPST activity,[2],suppresses TPST activity
"O=c1cc(-c2ccccc2)oc2cc(O)c(O)c(O)c12 [5′,6′,7′ OH Flavone]",% Control TPST Activity,[1]; [5],1%
"CCCCC/C=C\C/C=C\C/C=C\CCCCC(=O)O [GLA, gamma linolenic acid]",TPST activity (0 μM = 100.0),[1]; fatty acid 10 μM,78.8
same,TPST activity (0 μM = 100.0),[1]; fatty acid 25 μM,72.6
same,TPST activity (0 μM = 100.0),[1]; fatty acid 50 μM,71.3
same,TPST activity (0 μM = 100.0),[1]; fatty acid 100 μM,61.2
N[C@@H](CCC(=O)O)C(=O)O [Glutamate],Effect on TPST activity (in words),[1]; [6],decreased activity
same,% Control TPST Activity,[1]; [7],67%
"CC/C=C\C/C=C\C/C=C\C/C=C\C/C=C\C/C=C\CCC(=O)O [DHA, docosahexanoic acid]",TPST activity (0 μM = 100.0),[1]; fatty acid 0.5 μM,91.8
same,TPST activity (0 μM = 100.0),[1]; fatty acid 1 μM,105.2
same,TPST activity (0 μM = 100.0),[1]; fatty acid 2.5 μM,115.9
same,TPST activity (0 μM = 100.0),[1]; fatty acid 5 μM,109.6
same,TPST activity (0 μM = 100.0),[1]; fatty acid 10 μM,97.0
same,TPST activity (0 μM = 100.0),[1]; fatty acid 25 μM,117.8
same,TPST activity (0 μM = 100.0),[1]; fatty acid 50 μM,119.4
same,TPST activity (0 μM = 100.0),[1]; fatty acid 100 μM,103.3
"O=c1c(-c2ccc(O)c(O)c2)coc2cc(O)ccc12 [3′,4′,7 OH Isoflavone]",% Control TPST Activity,[1]; [5],17%
"O=c1cc(-c2ccc(O)c(O)c2)oc2ccccc12 [3′,4′ OH Flavone]",% Control TPST Activity,[1]; [5],55%
O=c1c(-c2ccc(O)cc2)coc2cc(O)cc(O)c12 [Genistein],Effect on TPST activity (in words),"[1]; Example 2, 100 μM",inhibitory effect on TPST activity
same,Effect on TPST activity (in words),"[1]; Example 3, 25 μM, platelets",stimulation of TPST activity
same,Effect on TPST activity (in words),"[1]; Example 3, 25 μM, platelets, listed as genistein",TPST enhancing effect
same,% Control TPST Activity,[1]; [7],74%
same,% Control TPST Activity,[1]; [5],117%
same,TPST activity (0 μM = 100),[1]; flavonoid 2.5 μM,86.5
same,TPST activity (0 μM = 100),[1]; flavonoid 5 μM,83.4
same,TPST activity (0 μM = 100),[1]; flavonoid 10 μM,75.8
same,TPST activity (0 μM = 100),[1]; flavonoid 25 μM,50.9
same,TPST activity (0 μM = 100),[1]; flavonoid 50 μM,62
O=c1c(O)c(-c2ccc(O)c(O)c2)oc2cc(O)cc(O)c12 [Quercetin],% Control TPST Activity,[1]; [7],3%
same,% Control TPST Activity,[1]; [5],48%
same,TPST activity (0 μM = 100),[1]; flavonoid 0.5 μM,45.8
same,TPST activity (0 μM = 100),[1]; flavonoid 1 μM,33.7
same,TPST activity (0 μM = 100),[1]; flavonoid 2.5 μM,25.7
same,TPST activity (0 μM = 100),[1]; flavonoid 5 μM,21.1
same,TPST activity (0 μM = 100),[1]; flavonoid 10 μM,9.5
same,TPST activity (0 μM = 100),[1]; flavonoid 25 μM,5
same,TPST activity (0 μM = 100),[1]; flavonoid 50 μM,0.9
same,TPST activity (0 μM = 100),[1]; flavonoid 100 μM,0
O=C(O)CCC(=O)O [Succinate],Effect on TPST activity (in words),[1]; [6],decreasing sulphation
same,% Control TPST Activity,[1]; [7],59%
NC(=O)CC[C@H](N)C(=O)O [Glutamine],Effect on TPST activity (in words),[1]; [6],increased activity
same,% Control TPST Activity,[1]; [7],125%
N[C@@H](Cc1ccccc1)C(=O)O [Phenylalanine],Effect on TPST activity (in words),[1]; [6],decreased TPST activity in a dose dependent fashion
same,% Control TPST Activity,"[1]; Table 2, 50 μM, normal human platelets",79%
same,% Control TPST Activity,"[1]; Table 2, 1000 μM, normal human platelets",40%
O=c1c(O)c(-c2ccccc2)oc2ccccc12 [3 OH Flavone],% Control TPST Activity,[1]; [5],96%
same,TPST activity (0 μM = 100),[1]; flavonoid 0.5 μM,79
same,TPST activity (0 μM = 100),[1]; flavonoid 1 μM,92.6
same,TPST activity (0 μM = 100),[1]; flavonoid 2.5 μM,90.7
same,TPST activity (0 μM = 100),[1]; flavonoid 5 μM,83
same,TPST activity (0 μM = 100),[1]; flavonoid 10 μM,97.9
same,TPST activity (0 μM = 100),[1]; flavonoid 25 μM,101.1
same,TPST activity (0 μM = 100),[1]; flavonoid 50 μM,95.5
same,TPST activity (0 μM = 100),[1]; flavonoid 100 μM,94.4
CCCCC/C=C\C/C=C\CCCCCCCC(=O)O [Linoleic Acid],% Control TPST Activity,[1]; [7],113%
CCO [Ethanol],Effect on TPST activity (in words),[1]; [6],stimulation of activity
same,% Control TPST Activity,"[1]; Table 2, 0.4%, normal human platelets",177%
same,Increase of TPST level,[3],over three-fold
same,TPST enzyme activity versus normal individuals,[4],two- to three-fold higher
O=c1cc(-c2ccccc2)oc2cccc(O)c12 [5 OH Flavone],% Control TPST Activity,[1]; [5],152%
O=c1c(O)c(-c2ccc(O)cc2)oc2cc(O)cc(O)c12 [Kaempferol],TPST activity (0 μM = 100),[1]; flavonoid 0.5 μM,45.2
same,TPST activity (0 μM = 100),[1]; flavonoid 1 μM,39.9
same,TPST activity (0 μM = 100),[1]; flavonoid 2.5 μM,22.3
same,TPST activity (0 μM = 100),[1]; flavonoid 5 μM,21.4
same,TPST activity (0 μM = 100),[1]; flavonoid 10 μM,14.4
same,TPST activity (0 μM = 100),[1]; flavonoid 25 μM,11
same,TPST activity (0 μM = 100),[1]; flavonoid 50 μM,7.3
same,TPST activity (0 μM = 100),[1]; flavonoid 100 μM,2.9
O=c1c(-c2ccc(O)cc2)coc2cc(O)ccc12 [Daidzein],Effect on TPST activity (in words),"[1]; Example 3, 25 μM, platelets",stimulation of TPST activity
same,% Control TPST Activity,[1]; [5],279%
same,TPST activity (0 μM = 100),[1]; flavonoid 2.5 μM,100.2
same,TPST activity (0 μM = 100),[1]; flavonoid 5 μM,107.5
same,TPST activity (0 μM = 100),[1]; flavonoid 10 μM,181.1
same,TPST activity (0 μM = 100),[1]; flavonoid 25 μM,343.2
same,TPST activity (0 μM = 100),[1]; flavonoid 50 μM,303.1
O=c1cc(-c2ccc(O)cc2)oc2cc(O)cc(O)c12 [Apigenin],% Control TPST Activity,[1]; [5],31%
CCCCCC/C=C\CCCCCCCC(=O)O [Palmitoleic],TPST activity (0 μM = 100.0),[1]; fatty acid 10 μM,99.5
same,TPST activity (0 μM = 100.0),[1]; fatty acid 25 μM,95.2
same,TPST activity (0 μM = 100.0),[1]; fatty acid 50 μM,93.5
same,TPST activity (0 μM = 100.0),[1]; fatty acid 100 μM,81.4
O=c1cc(-c2ccccc2)oc2ccccc12 [Flavone],Effect on TPST activity (in words),"[1]; Example 3, 25 μM, platelets",stimulation of TPST activity
same,% Control TPST Activity,[1]; [5],180%
same,TPST activity (0 μM = 100),[1]; flavonoid 0.5 μM,80.3
same,TPST activity (0 μM = 100),[1]; flavonoid 1 μM,96.4
same,TPST activity (0 μM = 100),[1]; flavonoid 2.5 μM,93.5
same,TPST activity (0 μM = 100),[1]; flavonoid 5 μM,102.3
same,TPST activity (0 μM = 100),[1]; flavonoid 10 μM,126
same,TPST activity (0 μM = 100),[1]; flavonoid 25 μM,172.8
same,TPST activity (0 μM = 100),[1]; flavonoid 50 μM,230.2
same,TPST activity (0 μM = 100),[1]; flavonoid 100 μM,307.3
"O=c1cc(-c2cc(O)c(O)c(O)c2O)oc2cc(O)ccc12 [2′,3′,4′,5′,7 OH Flavone]",% Control TPST Activity,[1]; [5],38%
Oc1cc(O)c2c(c1)O[C@H](c1ccc(O)c(O)c1)[C@@H](O)C2 [(+)-Catechin],% Control TPST Activity,[1]; [5],74%
O=C(O)CC(O)(CC(=O)O)C(=O)O [Citrate],Effect on TPST activity (in words),[1]; [6],increasing activity
same,% Control TPST Activity,[1]; [7],113%
CCCC(=O)O [Butyric Acid],% Control TPST Activity,[1]; [7],125%
same,TPST activity (0 μM = 100.0),[1]; fatty acid 0.5 μM,137.6
same,TPST activity (0 μM = 100.0),[1]; fatty acid 1 μM,96.8
same,TPST activity (0 μM = 100.0),[1]; fatty acid 2.5 μM,114.3
same,TPST activity (0 μM = 100.0),[1]; fatty acid 5 μM,94.6
same,TPST activity (0 μM = 100.0),[1]; fatty acid 10 μM,99.2
same,TPST activity (0 μM = 100.0),[1]; fatty acid 25 μM,76.1
same,TPST activity (0 μM = 100.0),[1]; fatty acid 50 μM,86.4
same,TPST activity (0 μM = 100.0),[1]; fatty acid 100 μM,62.2
